# According to patent US8759366B2, “Aminopyrimidines as SYK inhibitors” (Merck Sharp & Dohme Corp., priority 2009, dated 2014):
# Target: rhSYK (Homo sapiens (Human), UniProt P43405)
# Conditions: read-out: rhSYK activity
row,Compound,IC50 [nM]
1,"COc1ccnc(Nc2cc(C)cc(-c3cnc(C4(Cl)CCN(S(N)(=O)=O)CC4)s3)c2)n1 [54(2), 4-Chloro-4-(5-{3-[(4-methoxypyrimidin-2-yl)amino]-5-methylphenyl}-1,3-thiazol-2-yl)-piperidine-1-sulfonamide]",< 100
2,CC(O)(CO)c1ncc(-c2cccc(Nc3nccc(C(F)(F)F)n3)c2)s1 (centres unmarked) [Ex 5-1],< 100
3,Cc1cc(Nc2nccc(C(F)(F)F)n2)cc(-c2cnc(C(C)(O)C(C)(C)O)s2)c1 (centres unmarked) [Ex 5-4],< 100
4,COc1nc(Nc2cc(C)cc(-c3cnc(C(C)(O)CO)s3)c2)ncc1Cl (centres unmarked) [Ex 5-19],< 100
5,Cc1cc(Nc2ncc(Cl)cn2)cc(-c2cnc(C(O)(CO)CO)s2)c1 [Ex 5-20],100 to 1000
6,"OC1(c2ncc(-c3cc(Nc4nccc(C(F)(F)F)n4)cc(C(F)(F)F)c3)s2)CCC1 [Example 2, 1-{5-[3-(trifluoromethyl)-5-{[4-(trifluoromethyl)pyrimidin-2-yl]amino}phenyl]-1,3-thiazol-2-yl}cyclobutanol]",100 to 1000
7,"CC(C)(O)c1ncc(-c2cc(Br)cc(Nc3nccc(C(F)(F)F)n3)c2)s1 [Example 4A-4, 2-[5-(3-bromo-5-{[4-(trifluoromethyl)pyrimidin-2-yl]amino}phenyl)-1,3-thiazol-2-yl]propan-2-ol]",< 100
8,"OC(c1ncc(-c2cccc(Nc3nccc(C(F)(F)F)n3)c2)s1)C1CC1 (centres unmarked) [Example 4A-5, cyclopropyl[5-(3-{[4-(trifluoromethyl)pyrimidin-2-yl]amino}phenyl)-1,3-thiazol-2-yl]methanol]",< 100
9,"CSc1ccc(C(C)(O)c2ncc(-c3cc(C)cc(Nc4nccc(C(F)(F)F)n4)c3)s2)cc1 (centres unmarked) [Example 4A-57, 1-[4-(methylsulfanyl)phenyl]-1-[5-(3-methyl-5-{[4-(trifluoromethyl)pyrimidin-2-yl]amino}phenyl)-1,3-thiazol-2-yl]ethanol]",100 to 1000
10,O=C1C[C@@H]2C[C@@](O)(c3ncc(-c4cccc(Nc5nccc(C(F)(F)F)n5)c4)s3)C[C@@H]2C1 [Example 4B-7],100 to 1000
11,CC1(C)CC(O)(c2ncc(-c3cccc(Nc4nccc(C(F)(F)F)n4)c3)s2)CC(C)(C)S1 [Example 4B-8],1000 to 10000
12,OC1(c2ncc(-c3cccc(Nc4nccc(C(F)(F)F)n4)c3)s2)CC2CCC1N2 (centres unmarked) [Example 4B-10],100 to 1000
13,Cc1cc(Nc2nccc(C(F)(F)F)n2)cc(-c2cnc(C3(O)COC(C)(C)OC3)s2)c1 [Example 4B-14],< 100
14,"Cc1cc(Nc2nccc(C(F)(F)F)n2)cc(-c2cnc(C3(O)CCC4(CC3)OCCO4)s2)c1 [Example 4B-15, 8-[5-(3-methyl-5-{[4-(trifluoromethyl)pyrimidin-2-yl]amino}phenyl)-1,3-thiazol-2-yl]-1,4-dioxaspiro[4.5]decan-8-ol]",< 100
15,COc1ccnc(Nc2cc(C)cc(-c3cnc(C4(O)CCC5(CC4)OCCO5)s3)c2)n1 [Example 4B-16],< 100
16,Cc1cc(Nc2nccc(C(F)(F)F)n2)cc(-c2cnc(C3(O)CCCC4CC43)s2)c1 (centres unmarked) [Example 4B-18],< 100
17,Cc1cc(Nc2nccc(C(F)(F)F)n2)cc(-c2cnc(C3(O)CCC4(C)C(=O)CCC4(O)C3)s2)c1 (centres unmarked) [Example 4B-26],< 100
18,Cc1cc(Nc2nccc(C)n2)cc(-c2cnc([C@]3(O)[C@H]4CC5C[C@H]3C[C@](C(=O)O)(C5)C4)s2)c1 [Example 4B-30],< 100
19,Cc1cc(Nc2nccc(C)n2)cc(-c2cnc([C@]3(O)[C@@H]4CC5C[C@@H]3C[C@](C(=O)O)(C5)C4)s2)c1 [Example 4B-31],< 100
20,Cc1cc(Nc2nccc(C(F)(F)F)n2)cc(-c2cnc(C3(O)CC4(O)CCC3(C)CC4)s2)c1 (centres unmarked) [Example 4B-41],< 100
21,Cc1cc(Nc2nccc(C(F)(F)F)n2)cc(-c2cnc(C3(O)C=CCCCC3)s2)c1 (centres unmarked) [Example 4B-55],< 100
22,Cc1cc(Nc2nccc(C)n2)cc(-c2cnc(C3(C)OC(=O)CC3(C)C)s2)c1 (centres unmarked) [Example 4B-58],< 100
23,Cc1cc(Nc2nccc(C(F)(F)F)n2)cc(-c2cnc(C3CCC(=O)O3)s2)c1 (centres unmarked) [Example 4B-60],< 100
24,Cc1cc(Nc2nccc(C(F)(F)F)n2)cc(-c2cnc(C3(C)OC(=O)CC3(C)C)s2)c1 (centres unmarked) [Example 4B-61],< 100
25,Cc1cc(Nc2nccc(C)n2)cc(-c2cnc(C3(O)CCC(CN)CC3)s2)c1 (centres unmarked) [Example 4C-2],< 100
26,Cc1cc(Nc2nccc(C)n2)cc(-c2cnc(C3(O)CCC(CN)CC3)s2)c1 (centres unmarked) [Example 4C-3],< 100
27,Cc1cc(Nc2nccc(C(F)(F)F)n2)cc(-c2cnc(C3(O)CCC(C4(N)CC4)CC3)s2)c1 (centres unmarked) [Example 4C-20],< 100
28,CCOC(=O)C1CCC(O)(c2ncc(-c3cc(C)cc(Nc4nccc(C)n4)c3)s2)CC1c1ccccc1C (centres unmarked) [Example 4C-27],100 to 1000

# Second part, the compound after the results:
row,IC50 [nM],Compound
1,100 to 1000,Cc1cc(Nc2nccc(C(F)(F)F)n2)cc(-c2cnc(C3CCC3)s2)c1 [13-1]
2,< 100,"COC(=O)NS(=O)(=O)N1CCC(O)(c2ncc(-c3cc(C)cc(Nc4nccc(OC)n4)c3)s2)CC1 [54(1), Methyl {[4-hydroxy-4-(5-{3-[(4-methoxypyrimidin-2-yl)amino]-5-methylphenyl}-1,3-thiazol-2-yl)piperidin-1-yl]sulfonyl}carbamate]"
3,< 100,Cc1cc(Nc2ncc(Cl)c(C)n2)cc(-c2cnc(C(C)(O)CO)s2)c1 (centres unmarked) [Ex 5-14]
4,100 to 1000,"OC1(c2ncc(-c3cc(Nc4nccc(C(F)(F)F)n4)ccc3F)s2)CCC1 [Example 1, 1-[5-(2-fluoro-5-{[4-(trifluoromethyl)pyrimidin-2-yl]amino}phenyl)-1,3-thiazol-2-yl]cyclobutanol]"
5,100 to 1000,"OC1(c2ncc(-c3cc(Cl)cc(Nc4nccc(C(F)(F)F)n4)c3)s2)CCC1 [Example 3, 1-[5-(3-chloro-5-{[4-(trifluoromethyl)pyrimidin-2-yl]amino}phenyl)-1,3-thiazol-2-yl]cyclobutanol]"
6,< 100,"Cc1cc(Nc2nccc(C(F)(F)F)n2)cc(-c2cnc(C(C)(C)O)s2)c1 [Example 4, 2-[5-(3-methyl-5-{[4-(trifluoromethyl)pyrimidin-2-yl]amino}phenyl)-1,3-thiazol-2-yl]propan-2-ol]"
7,< 100,OC(c1ncc(-c2cccc(Nc3nccc(C(F)(F)F)n3)c2)s1)(C(F)(F)F)C(F)(F)F [Example 4A-3]
8,< 100,Cn1ccc(C(C)(O)c2ncc(-c3cccc(Nc4nccc(C(F)(F)F)n4)c3)s2)c1 (centres unmarked) [Example 4A-16]
9,< 100,"Cc1cc(Nc2nccc(C(F)(F)F)n2)cc(-c2cnc(C(O)CCc3c[nH]cn3)s2)c1 (centres unmarked) [Example 4A-40, 3-(1H-imidazol-4-yl)-1-[5-(3-methyl-5-{[4-(trifluoromethyl)pyrimidin-2-yl]amino}phenyl)-1,3-thiazol-2-yl]propan-1-ol]"
10,< 100,OC1(c2ncc(-c3cccc(Nc4nccc(C(F)(F)F)n4)c3)s2)COC1 [Example 4B-11]
11,< 100,Cc1cc(Nc2nccc(C(F)(F)F)n2)cc(-c2cnc(C3(O)COC3)s2)c1 [Example 4B-12]
12,< 100,Cc1cc(Nc2nccc(C(F)(F)F)n2)cc(-c2cnc(C3(O)CCOCC3)s2)c1 [Example 4B-13]
13,< 100,Cc1cc(Nc2nccc(C(F)(F)F)n2)cc(-c2cnc(C3(O)C[C@H]4CC(=O)C[C@H]4C3)s2)c1 (some centres unmarked) [Example 4B-20]
14,< 100,Cc1cc(Nc2nccc(C)n2)cc(-c2cnc(C3(O)CCC(C(=O)O)[C@@H]4CCCC[C@H]43)s2)c1 (some centres unmarked) [Example 4B-21]
15,< 100,Cc1cc(Nc2nccc(C)n2)cc(-c2cnc(C3(O)CCC(C(=O)O)[C@H]4CCCC[C@@H]43)s2)c1 (some centres unmarked) [Example 4B-23]
16,< 100,Cc1cc(Nc2nccc(C(F)(F)F)n2)cc(-c2cnc(C3(O)CCC4(CCC(=O)N4)CC3)s2)c1 (centres unmarked) [Example 4B-24]
17,< 100,Cc1cc(Nc2nccc(C(F)(F)F)n2)cc(-c2cnc(C3(O)C[C@H]4CC(CC(=O)O)C[C@H]4C3)s2)c1 (some centres unmarked) [Example 4B-27]

row,IC50 [nM],Compound
1,< 100,Cc1cc(Nc2nccc(C)n2)cc(-c2cnc(C3(O)C4CC5CC3CC(O)(C5)C4)s2)c1 (centres unmarked) [Example 4B-29]
2,< 100,Cc1cc(Nc2nccc(C)n2)cc(-c2cnc(C3(O)CC4(C(=O)O)CCC3(C)C4(C)C)s2)c1 (centres unmarked) [Example 4B-32]
3,< 100,Cc1cc(Nc2nccc(C(F)(F)F)n2)cc(-c2cnc(C3(O)C4CC5C(C4C(=O)O)C53)s2)c1 (centres unmarked) [Example 4B-36]
4,< 100,Cc1cc(Nc2nccc(C(F)(F)F)n2)cc(-c2cnc(C3(O)C4CC5CC3CC(O)(C5)C4)s2)c1 (centres unmarked) [Example 4B-42]
5,< 100,Cc1cc(Nc2nccc(C(F)(F)F)n2)cc(-c2cnc(C3(O)C4CC5CC(C4)C(C(=O)O)C3C5)s2)c1 (centres unmarked) [Example 4B-43]
6,< 100,Cc1cc(Nc2nccc(C(F)(F)F)n2)cc(-c2cnc(C3(O)CC4(C(=O)O)CCC3(C)C4(C)C)s2)c1 (centres unmarked) [Example 4B-49]
7,< 100,CC(=O)NC12CC3CC(C1)C(O)(c1ncc(-c4cc(C)cc(Nc5nccc(C(F)(F)F)n5)c4)s1)C(C3)C2 (centres unmarked) [Example 4B-51]
8,< 100,CCOC(=O)C1CCC(O)(c2ncc(-c3cc(C)cc(Nc4nccc(C(F)(F)F)n4)c3)s2)C(C)C1C (centres unmarked) [Example 4B-57]
9,< 100,OC1(c2ncc(-c3cccc(Nc4nccc(C(F)(F)F)n4)c3)s2)CCCCCC1 [Example 4C-1]
10,< 100,Cc1cc(Nc2nccc(C(F)(F)F)n2)cc(-c2cnc(C3(O)CCC(CCN)CC3)s2)c1 (centres unmarked) [Example 4C-5]
11,< 100,Cc1cc(Nc2nccc(C)n2)cc(-c2cnc(C3(O)CCC(CO)CC3)s2)c1 (centres unmarked) [Example 4C-9]
12,< 100,Cc1cc(Nc2nccc(C)n2)cc(-c2cnc(C3(O)CCC(N)(C(=O)O)CC3)s2)c1 (centres unmarked) [Example 4C-10]
13,< 100,COC(=O)C1CCC(O)(c2ncc(-c3cc(C)cc(Nc4nccc(C)n4)c3)s2)CC1C(C)C (centres unmarked) [Example 4C-17]
14,< 100,Cc1cc(Nc2nccc(C(F)(F)F)n2)cc(-c2cnc(C3(O)CCC(C4(N)CC4)CC3)s2)c1 (centres unmarked) [Example 4C-19]
15,< 100,Cc1cc(Nc2nccc(C(F)(F)F)n2)cc(-c2cnc(C3(O)CCCC(C)(CC(=O)O)C3)s2)c1 (centres unmarked) [Example 4C-22]
16,< 100,Cc1cc(Nc2nccc(C(F)(F)F)n2)cc(-c2cnc(C3(O)CCCC(C)(CC(=O)O)C3)s2)c1 (centres unmarked) [Example 4C-23]
17,100 to 1000,CCOC(=O)C1CCC(O)(c2ncc(-c3cc(C)cc(Nc4nccc(C)n4)c3)s2)CC1c1ccc(F)cc1 (centres unmarked) [Example 4C-28]
